Experimental data from ChEMBL document CHEMBL1201862, “PubChem BioAssay data set” (2004).
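Step 1: Grow cells in 96-well plates. Step 2: Expose to compound for 48 hours at 5 concentrations. Step 3: Interpolate endpoints linearly; if unreached, use highest concentration. GI50 marks 50% less growth.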 The source made the active and inactive calls. No stated cut-off is given here; in the data, active = GI50 up to about 1.1 µM and inactive = higher.

Tests used:
Experiment in all cases: NCI anticancer screen, dose series, 48 h
[1] = system: IGROV-1
[2] = system: MDA-MB-435
[3] = system: SK-MEL-5
[4] = system: NCI-H23
[5] = system: OVCAR-3
[6] = system: T47D
[7] = system: HOP-92
[8] = system: Hs-578T
[9] = system: EKVX
[10] = system: PC-3
[11] = system: HOP-62
[12] = system: SW-620
[13] = system: BT-549
[14] = system: SNB-75
[15] = system: M14
[16] = system: ACHN
[17] = system: TK-10
[18] = system: UACC-257
[19] = system: 786-0
[20] = system: HCT-116

Structure (SMILES): CN1CSC(=S)N(c2cccc(C(F)(F)F)c2)C1
- GI50 [1]: 18.7 µM (inactive)
- GI50 [2]: 22.5 µM (inactive)
- GI50 [3]: 17.1 µM (inactive)
- GI50 [4]: 17.9 µM (inactive)
- GI50 [5]: 30 µM (inactive)
- GI50 [6]: 31.7 µM (inactive)
- GI50 [7]: 18.9 µM (inactive)
- GI50 [8]: 28.9 µM (inactive)
- GI50 [9]: 25 µM (inactive)
- GI50 [10]: 25.1 µM (inactive)
- GI50 [11]: 26.9 µM (inactive)
- GI50 [12]: 31.6 µM (inactive)
- GI50 [13]: 20.7 µM (inactive)
- GI50 [14]: 42.2 µM (inactive)
- GI50 [15]: 17.9 µM (inactive)
- GI50 [16]: 19 µM (inactive)
- GI50 [17]: 28.6 µM (inactive)
- GI50 [18]: 22.5 µM (inactive)
- GI50 [19]: 26.2 µM (inactive)
- GI50 [20]: 34 µM (inactive)

Structure (SMILES): COCc1nc2c(OC)c(-c3nc4ccc(N5CCN(C)CC5)nc4[nH]3)cc(OC)c2[nH]1
- GI50 [1]: > 100 µM (inactive)
- GI50 [2]: 41.8 µM (inactive)
- GI50 [3]: 18.6 µM (inactive)
- GI50 [4]: 62.5 µM (inactive)
- GI50 [5]: 15.9 µM (inactive)
- GI50 [6]: 53 µM (inactive)
- GI50 [7]: > 100 µM (inactive)
- GI50 [8]: > 100 µM (inactive)
- GI50 [9]: 68.1 µM (inactive)
- GI50 [10]: 33.3 µM (inactive)
- GI50 [11]: 40.1 µM (inactive)
- GI50 [12]: 39.1 µM (inactive)
- GI50 [13]: > 100 µM (inactive)
- GI50 [14]: 18 µM (inactive)
- GI50 [15]: 21.3 µM (inactive)
- GI50 [16]: 62.2 µM (inactive)
- GI50 [17]: 67.3 µM (inactive)
- GI50 [18]: 24 µM (inactive)
- GI50 [19]: 40.7 µM (inactive)
- GI50 [20]: 30.1 µM (inactive)

Structure (SMILES): Clc1ccc2c(NC3CCC(N4CCCCC4)CC3)ccnc2c1 (centres undefined)
- GI50 [1]: 29.2 µM (inactive)
- GI50 [2]: 14.1 µM (inactive)
- GI50 [3]: 15.2 µM (inactive)
- GI50 [4]: 52.5 µM (inactive)
- GI50 [5]: 20.8 µM (inactive)
- GI50 [6]: 29.4 µM (inactive)
- GI50 [7]: 12.6 µM (inactive)
- GI50 [8]: 27.2 µM (inactive)
- GI50 [9]: 21.2 µM (inactive)
- GI50 [10]: 32.5 µM (inactive)
- GI50 [11]: 29.9 µM (inactive)
- GI50 [12]: 27.7 µM (inactive)
- GI50 [13]: 18.5 µM (inactive)
- GI50 [15]: 5.16 µM (inactive)
- GI50 [16]: 32.6 µM (inactive)
- GI50 [17]: 18.4 µM (inactive)
- GI50 [18]: 14.3 µM (inactive)
- GI50 [19]: 15.4 µM (inactive)
- GI50 [20]: 13.4 µM (inactive)

Structure (SMILES): COC(=O)C1=C(C)C(=O)[C@]23C(CCCC[C@H]12)C(=O)[C@H](C(=O)OC)C3C (some centres undefined)
- GI50 [1]: > 100 µM (inactive)
- GI50 [2]: > 100 µM (inactive)
- GI50 [4]: > 100 µM (inactive)
- GI50 [5]: > 100 µM (inactive)
- GI50 [6]: > 100 µM (inactive)
- GI50 [7]: > 100 µM (inactive)
- GI50 [8]: > 100 µM (inactive)
- GI50 [9]: > 100 µM (inactive)
- GI50 [10]: > 100 µM (inactive)
- GI50 [11]: > 100 µM (inactive)
- GI50 [12]: > 100 µM (inactive)
- GI50 [13]: > 100 µM (inactive)
- GI50 [15]: > 100 µM (inactive)
- GI50 [16]: > 100 µM (inactive)
- GI50 [17]: > 100 µM (inactive)
- GI50 [18]: > 100 µM (inactive)
- GI50 [19]: > 100 µM (inactive)
- GI50 [20]: > 100 µM (inactive)

Structure (SMILES): COc1ccc(-c2cc(-c3ccc(C)cc3)n(C3OC(COC(C)=O)C(OC(C)=O)C(OC(C)=O)C3OC(C)=O)c(=S)c2C#N)cc1 (centres undefined)
- GI50 [1]: > 100 µM (inactive)
- GI50 [2]: > 100 µM (inactive)
- GI50 [3]: > 100 µM (inactive)
- GI50 [4]: > 100 µM (inactive)
- GI50 [5]: > 100 µM (inactive)
- GI50 [6]: > 100 µM (inactive)
- GI50 [7]: > 100 µM (inactive)
- GI50 [8]: 36.6 µM (inactive)
- GI50 [9]: > 100 µM (inactive)
- GI50 [10]: > 100 µM (inactive)
- GI50 [11]: 37.1 µM (inactive)
- GI50 [12]: > 100 µM (inactive)
- GI50 [13]: > 100 µM (inactive)
- GI50 [14]: 27 µM (inactive)
- GI50 [15]: > 100 µM (inactive)
- GI50 [16]: > 100 µM (inactive)
- GI50 [17]: > 100 µM (inactive)
- GI50 [19]: > 100 µM (inactive)
- GI50 [20]: > 100 µM (inactive)

Structure (SMILES): C=CC[C@H](N=C(SC)SC)C(=O)N1C(=O)N(C)[C@@H](C)[C@H]1c1ccccc1
- GI50 [2]: 33.8 µM (inactive)
- GI50 [3]: 20 µM (inactive)
- GI50 [4]: 39.3 µM (inactive)
- GI50 [5]: 29.4 µM (inactive)
- GI50 [6]: 40.5 µM (inactive)
- GI50 [7]: 23.3 µM (inactive)
- GI50 [8]: 21.3 µM (inactive)
- GI50 [9]: 31.3 µM (inactive)
- GI50 [10]: 33.7 µM (inactive)
- GI50 [11]: 46.5 µM (inactive)
- GI50 [12]: 30.1 µM (inactive)
- GI50 [13]: 34.6 µM (inactive)
- GI50 [14]: 36.4 µM (inactive)
- GI50 [15]: 34.9 µM (inactive)
- GI50 [16]: 49.4 µM (inactive)
- GI50 [17]: 44.2 µM (inactive)
- GI50 [18]: 29.2 µM (inactive)
- GI50 [19]: 46.6 µM (inactive)
- GI50 [20]: 33 µM (inactive)

Structure (SMILES): N=C(N)NS(=O)(=O)c1ccc(Nc2c3ccccc3nc3c(C(=O)NNCCO)cccc23)cc1
- GI50 [1]: 0.153 µM (active)
- GI50 [2]: 0.0585 µM (active)
- GI50 [3]: 0.123 µM (active)
- GI50 [4]: 0.133 µM (active)
- GI50 [5]: 0.134 µM (active)
- GI50 [6]: 0.12 µM (active)
- GI50 [7]: 0.284 µM (active)
- GI50 [8]: 0.249 µM (active)
- GI50 [9]: 0.361 µM (active)
- GI50 [10]: 0.303 µM (active)
- GI50 [11]: 0.193 µM (active)
- GI50 [12]: 0.164 µM (active)
- GI50 [13]: 0.121 µM (active)
- GI50 [15]: 0.21 µM (active)
- GI50 [16]: 0.565 µM (active)
- GI50 [17]: > 1 µM (active)
- GI50 [18]: 0.22 µM (active)
- GI50 [19]: 0.436 µM (active)
- GI50 [20]: 0.156 µM (active)
